Consider 1 compound from patent publication US9212204B2, “Treatment of rett syndrome using glycyl-L-2-methylprolyl-L-glutamic acid” (priority 2011, dated 2015).

Molecules are shown by their SMILES. Non-standard residues stand in square brackets, D forms with d. Residues, ends and D or L forms follow the SMILES beside them. αMeP = C[C@@]1(C(=O)O)CCCN1

Data set [1] deals with RTT iPSC-derived neurons. Description: In vitro human model of Rett Syndrome, iPSC-derived neurons. It counts as cell-based. Further details: glutamatergic synapse numbers: dose or concentration left out as unconfirmed. The text has this: To test the effects of G-2-MePE on neuronal morphology, we used an in vitro model of RTT described in Marchetto et al., A model for neural development and treatment of Rett syndrome using human induced pluripotent stem cells, Cell 143:527-539 (2010) (including supplemental information). The model uses induced pluripotent stem cells (iPSCs) generated from fibroblasts of human RTT patients carrying different MeCP2 mutations.
RTT fibroblasts (carrying 4 distinct MeCP2 mutations) and control fibroblasts are generated from explants of dermal biopsies. The shRNA against target MeCP2 gene is cloned into the LentiLox3.7 lentivirus vector (as described in Marchetto et al.). The fibroblasts are infected with retroviral reprogramming vectors (Sox2, Oct4, c-Myc and Klf4), Two days after infection, fibroblasts are plated on mitotically inactivated mouse embryonic fibroblasts with hESC medium. After 2 weeks, iPSC colonies that emerge from the background of fibroblasts are manually picked and transferred to feeder-free conditions on matrigel-coated dishes (BD) using embryonic stem cell culture media mTeSR™ (Stem Cell Technologies) and passaged manually. Gene expression profiles of the generated clones are measured using human genome Affymetrix Gene Chip™ arrays to confirm that reprogramming is successful.
To obtain neural progenitor cells (NPCs), embryoid bodies (EBs) are formed by mechanical dissociation of cell clusters and plating onto low-adherence dishes in hESC medium without FGF2 for 5-7 days. After that, EBs are plated onto poly-ornithine/laminin-coated dishes in DMEM/F12 plus N2 medium (serum-free supplement for growth and expression of post-mitotic cells). […]
Cells are fixed in 4% paraformaldehyde and permeabilized with 0.5% Triton-X100 in PBS. […] Fluorescent signals are detected using a Zeiss inverted microscope and images are processed with Photoshop CS3. The following primary antibodies are used: TRA-1-60, TRA-1-81 (1:100), Nanog and Lin28 (1:500), human Nestin (1:100), Tuj-1 (1:500), Map2 (1:100); meCP2 (1:1000; VGLUT1 (1:200), Psd95 (1:500), GFP (1:200), Sox1 (1:250), Mushasil (1:200) and me3H3K27 (1:500). Cell soma size is measured using suitable software (e.g. ImageJ) after identification of neurons using the Syn::EGFP™. The morphologies of neuronal dendrites and spines are studied from an individual projection of z-stacks optical sections and scanned at 0.5 um increments that correlate with the resolution valued at z-plane. Each optical section is the result of 3 scans at 500 lps followed by Kalman filtering. For synapse quantification, images are taken by a z-step of 1 um using Biorad radiance 2100™ confocal microscope. Synapse quantification is done blinded to genotype. Only VGLUT1 puncta along Map2-positive processes are counted. […]

In data set [2] the test system is subjects with an Autism Spectrum Disorder. Nature of the data set: Placebo-controlled crossover study in subjects with an Autism Spectrum Disorder. It counts as in vivo, human. The text has this:
To determine whether G-2-MePE can treat symptoms of ASD, we carry out a study in human beings with ASD. Twenty subjects with an Autism Spectrum Disorder are recruited. Subjects are male and aged between 16 and 65 years (Mean=18.1 SD=3.4). All subjects have an IQ >60 and strict DSM-IV-TR diagnosis of Autistic Disorder or Asperger Disorder, Subjects also meet criteria for an Autism Spectrum Disorder according the ADI-R and ADOS-G instruments, and fulfill the proposed DSM-V criteria for and Autism Spectrum Disorder. Subjects are instructed that concomitant medications are to be stable for at least six weeks prior to study. Subjects receiving medication to treat signs of inattention are tested in the morning and instructed to take their medication in the afternoon. Subjects better treated with atypical anti-psychotic medications indicated for autism are excluded. Subjects are screened for known genetic disorders including and those with Fragile X Syndrome or tuberous sclerosis excluded. Subjects with uncontrolled epilepsy are excluded.
The study is a double blind placebo-controlled crossover study with three phases. Subjects enter each phase of the crossover in a randomized order. In the test phases, subjects receive either placebo, 10 mg/kg T.I.D oral G-2-MePE for five days, or 30 mg/kg T.I.D. oral G-2-MePE. Each phase of the crossover is separated by a washout period of fourteen days.
Subjects are tested at baseline using the following instruments: Wechsler IQ, Abberant Behavior Checklist Community Edition (ABC), Vinelands, Yale-Brown Obsessive Compulsive Scale (YBOCS) compulsion subscale, Social Responsiveness Scale (SRS), Clinical Global Impression of Severity (CGI-S) and their carers complete the Caregiver Strain Questionnaire (CSQ).
Subjects are administered two tasks—the Reading the Mind in the Eyes Test—Revised (RMET) and an Eye Tracking (ET) task, as well as Clinical Global Impression of Improvement (CGI-1). Tasks commence two hours following administration of placebo or either dose of G-2-MePE. The RMET is a computer based task that assesses one's ability to read emotions from the eyes of subtle affective facial expressions and is a widely used test of emotion recognition in patients with autism (2001). Importantly, the RMET is capable of detecting improvement with even a single dose of a pharmacological agent (Guastella et al., 2010). Eye tracking issues are characteristic of patients with autism who spend less time looking at the eyes of photographs of human faces. Again, a single administration of a pharmacologic intervention can ameliorate eye tracking deficits in autism (Andari et al, 2010).
Adverse events are also recorded using standard safety measures.
Statistically, the effect of treatment with G-2-MePE is analysed by conducting a repeated analysis of covariance (ANCOVA) on the effect of treatment on change from baseline scores.

On to `C[C@@]1(C(=O)N[C@@H](CCC(=O)O)C(=O)O)CCCN1C(=O)CN` [Example G-2-MePE, Glycyl-L-2-methylprolyl-L-glutamic acid] (H-Gly-[αMeP]-Glu-OH), for which, in data set [1] (1 week treatment), the “frequency and amplitude of spontaneous post-synaptic currents” value is given as “normalizes”; the “frequency of calcium transients” value was “normalizes”. Further, in data set [1] (all concentrations, 1 week), the VGLUT1 puncta number result is reported as “increase”. Besides, in data set [1] (for 1 week, vs non-treated RTT controls), the glutamatergic synapse numbers entry is “significant increase”. Moreover, the “percent correct responses on the RMET” value in data set [2] (30 mg/kg T.I.D. oral) was “increases”. In addition, the “Serious Adverse Events” value in data set [2] (10 or 30 mg/kg T.I.D. oral) is “No Serious Adverse Events”. In data set [2] (10 or 30 mg/kg T.I.D. oral, vs placebo), the adverse events result is on record as “no more adverse events than were present during treatment with placebo”. Also, the tolerability entry in data set [2] (ASD population) was “well tolerated”. Moreover, in data set [2] (overall treatment effect), the “performance of the RMET test” value was “significant overall improvement” and the “time spent looking at the eye region in the ET test” value is “significant overall improvement”.
